According to patent publication US12655106B2 (Eikonizo Therapeutics, Inc., priority 2021, dated 2026):

Key:
Full length Human HDAC6 = biological target: T1, Full length Human HDAC6 (Homo sapiens, UniProt Q9UBN7); experiment: Caliper endpoint assay for HDAC enzymatic activity (HDAC6); type: biochemical; settings: for IC50: in vitro enzymatic, Caliper endpoint assay, 30 min pre-incubation, 1 μM substrate peptide; for Selectivity (6 v 8): ratio of HDAC8 IC50/HDAC6 IC50
T1 construct: Full length Human HDAC6; FLAG (C); host or cells: baculovirus expression system
T1 sequence (Q9UBN7 1-1215): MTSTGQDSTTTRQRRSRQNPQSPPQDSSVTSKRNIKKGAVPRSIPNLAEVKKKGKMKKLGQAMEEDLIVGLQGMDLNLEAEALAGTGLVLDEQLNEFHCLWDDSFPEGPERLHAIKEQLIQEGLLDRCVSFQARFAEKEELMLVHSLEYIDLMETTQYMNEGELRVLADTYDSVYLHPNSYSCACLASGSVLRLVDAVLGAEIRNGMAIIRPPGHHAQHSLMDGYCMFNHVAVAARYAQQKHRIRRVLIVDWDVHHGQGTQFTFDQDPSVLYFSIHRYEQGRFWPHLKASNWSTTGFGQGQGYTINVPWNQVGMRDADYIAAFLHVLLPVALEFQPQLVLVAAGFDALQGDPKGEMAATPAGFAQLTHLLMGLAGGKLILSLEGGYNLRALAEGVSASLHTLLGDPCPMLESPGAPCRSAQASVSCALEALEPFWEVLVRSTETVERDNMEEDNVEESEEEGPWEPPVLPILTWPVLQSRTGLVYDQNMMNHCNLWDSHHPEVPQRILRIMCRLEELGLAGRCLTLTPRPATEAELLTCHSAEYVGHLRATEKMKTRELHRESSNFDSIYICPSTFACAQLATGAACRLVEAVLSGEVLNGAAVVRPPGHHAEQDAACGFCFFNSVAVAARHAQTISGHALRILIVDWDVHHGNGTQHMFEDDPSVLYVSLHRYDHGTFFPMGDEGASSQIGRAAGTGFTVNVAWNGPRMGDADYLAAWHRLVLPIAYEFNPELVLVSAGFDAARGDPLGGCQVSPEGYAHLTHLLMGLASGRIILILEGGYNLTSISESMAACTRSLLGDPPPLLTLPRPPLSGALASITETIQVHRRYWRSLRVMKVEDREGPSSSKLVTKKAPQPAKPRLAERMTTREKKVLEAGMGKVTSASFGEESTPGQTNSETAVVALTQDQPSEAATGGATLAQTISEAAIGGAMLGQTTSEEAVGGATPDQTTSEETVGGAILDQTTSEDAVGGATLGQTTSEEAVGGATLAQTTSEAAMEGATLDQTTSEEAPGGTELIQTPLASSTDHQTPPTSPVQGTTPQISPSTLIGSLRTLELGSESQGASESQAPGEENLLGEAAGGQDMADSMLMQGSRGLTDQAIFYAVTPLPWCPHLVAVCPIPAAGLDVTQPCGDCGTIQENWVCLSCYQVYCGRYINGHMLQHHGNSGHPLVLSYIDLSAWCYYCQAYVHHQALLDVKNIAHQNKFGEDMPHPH

Full length Human HDAC8 = biological target: T2, Full length Human HDAC8 (Homo sapiens, UniProt Q9BY41); experiment: Caliper endpoint assay for HDAC enzymatic activity (HDAC8); type: biochemical; settings: in vitro enzymatic, 30 min pre-incubation, 1 μM substrate peptide
T2 construct: Full length Human HDAC8; HIS (N); host or cells: baculovirus expression system
T2 sequence (Q9BY41 1-377): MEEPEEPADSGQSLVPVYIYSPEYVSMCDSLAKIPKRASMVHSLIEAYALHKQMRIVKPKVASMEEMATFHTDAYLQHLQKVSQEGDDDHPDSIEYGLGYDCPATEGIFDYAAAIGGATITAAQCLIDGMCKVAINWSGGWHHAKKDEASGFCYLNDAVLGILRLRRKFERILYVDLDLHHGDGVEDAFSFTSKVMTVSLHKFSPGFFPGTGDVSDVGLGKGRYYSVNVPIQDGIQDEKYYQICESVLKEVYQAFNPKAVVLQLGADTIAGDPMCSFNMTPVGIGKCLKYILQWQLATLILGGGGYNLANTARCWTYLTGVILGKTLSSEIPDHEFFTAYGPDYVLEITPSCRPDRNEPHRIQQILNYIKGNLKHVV

SMILES | IC50 (Full length Human HDAC6) [nM] | Selectivity (6 v 8) (Full length Human HDAC6) | IC50 (Full length Human HDAC8) [nM]
O=C(NO)c1ccc2c(c1)C[C@@H]1COCCN1C2 [Compound 131] | 100 to 1000 | III (III: >10-100) | 1000 to 10000
O=C(NO)c1cc(F)cc(CN2CCC3(CCCCC3)CC2)c1 [Compound 276, 3-((3-azaspiro[5.5]undecan-3-yl)methyl)-5-fluoro-N-hydroxybenzamide] | 10000 to 100000 | I (I: 0.1-1) | 1000 to 10000
CN1CCC2(CCC(N3CCc4cc(C(=O)NO)cc(F)c4C3)C2)CC1 (stereo not shown) [Compound 417, 8-fluoro-N-hydroxy-2-(8-methyl-8-azaspiro[4.5]decan-2-yl)-1,2,3,4-tetrahydroisoquinoline-6-carboxamide] | 1 to 100 | IV (IV: >100-1000) | 10000 to 100000
O=C(NO)c1ccc(CN2C[C@H]3CC[C@@H]2CO3)c(F)c1 [Compound 173] | 1 to 100 | – | 1000 to 10000
CN1CCC2(CCC2N2CCc3cc(C(=O)NO)cc(F)c3C2)CC1 (stereo not shown) [Compound 358, 8-fluoro-2-(7-methyl-7-azaspiro[3.5]nonan-3-yl)-3,4-dihydro-1H-isoquinoline-6-carbohydroxamic acid] | 1 to 100 | IV (IV: >100-1000) | 1000 to 10000
O=C(NO)c1cc(F)c2c(c1)CCN(CC1CCC3(CC1)CN(C1CC1)C3)C2 [Compound 466, 2-[(2-cyclopropyl-2-azaspiro[3.5]nonan-7-yl)methyl]-8-fluoro-3,4-dihydro-1H-isoquinoline-6-carbohydroxamic acid] | 1 to 100 | V (V: >1000) | 10000 to 100000
CC[C@H]1Cc2c(F)cc(C(=O)NO)cc2CN1C[C@]12C[C@H](CO1)N(C)C2 (single isomer, unassigned) [Compound 552] | 1 to 100 | IV (IV: >100-1000) | 10000 to 100000
O=C(NO)c1ccc2c(c1)C[C@H]1CCCN1C2 [Compound 122] | 100 to 1000 | III (III: >10-100) | 1000 to 10000
CC[C@H]1Cc2c(F)cc(C(=O)NO)cc2CN1CC1COC1 (single isomer, unassigned) [Compound 216] | 1 to 100 | V (V: >1000) | > 100000
O=C(NO)c1cc(F)c2c(c1)CCN([C@@H]1CCNC3(CCC3)C1)C2 (single isomer, unassigned) [Compound 436] | 1 to 100 | IV (IV: >100-1000) | 1000 to 10000
O=C(NO)c1cc(F)c2c(c1)CCN(C[C@H]1CCCCO1)C2 (single isomer, unassigned) [Compound 175] | 1 to 100 | IV (IV: >100-1000) | 10000 to 100000
CC[C@H]1Cc2c(F)cc(C(=O)NO)cc2CN1C1CC2(C1)CN(C)C2 (single isomer, unassigned) [Compound 585] | 100 to 1000 | III (III: >10-100) | 1000 to 10000
CN1CC2(CCC(CN3CCc4cc(C(=O)NO)cc(F)c4C3)CC2)C1 [Compound 465, 8-fluoro-2-[(2-methyl-2-azaspiro[3.5]nonan-7-yl)methyl]-3,4-dihydro-1H-isoquinoline-6-carbohydroxamic acid] | 1 to 100 | V (V: >1000) | 10000 to 100000
O=C(NO)c1ccc2c(c1)CCN1CCCC[C@H]21 [Compound 90] | 1000 to 10000 | II (II: >1-10) | 1000 to 10000
O=C(NO)c1cc(F)c2c(c1)C[C@H]1CCCCN1C2 [Compound 94] | 100 to 1000 | III (III: >10-100) | 1000 to 10000
CN1Cc2cc(C(=O)NO)cc(F)c2CN1Cc1ccccc1 [Compound 118] | 1 to 100 | IV (IV: >100-1000) | 1000 to 10000
CN1CC[C@@]2(CC[C@H](N3CCc4cc(C(=O)NO)cc(F)c4C3)C2)C1 (single isomer, unassigned) [Compound 405] | 1 to 100 | V (V: >1000) | > 100000
O=C(NO)c1cc(F)c2c(c1)CCN(C1CC3(CCN(C4CC4)CC3)C1)C2 [Compound 607, 2-(7-cyclopropyl-7-azaspiro[3.5]nonan-2-yl)-8-fluoro-3,4-dihydro-1H-isoquinoline-6-carbohydroxamic acid] | 1 to 100 | IV (IV: >100-1000) | 10000 to 100000
CC[C@@H]1Cc2c(F)cc(C(=O)NO)cc2CN1C[C@H]1C[C@H]2CC[C@@H](C1)N2C (single isomer, unassigned) [Compound 572] | 1 to 100 | III (III: >10-100) | 1000 to 10000
O=C(NO)c1cc(F)c2c(c1)CCN([C@@H]1CCC3(CCCC3)C1)C2 (single isomer, unassigned) [Compound 184] | 1 to 100 | IV (IV: >100-1000) | 1000 to 10000
O=C(NO)c1cc(F)c2c(c1)CCN([C@H]1C[C@]3(CCCN(C4CC4)C3)C1)C2 (single isomer, unassigned) [Compound 345, 2-((2r,4s)-6-cyclopropyl-6-azaspiro[3.5]nonan-2-yl)-8-fluoro-N-hydroxy-1,2,3,4-tetrahydroisoquinoline-6-carboxamide] | 1 to 100 | IV (IV: >100-1000) | 1000 to 10000
O=C(NO)c1cc(F)c2c(c1)CCN([C@H]1C[C@@]3(CCCN(C4CC4)C3)C1)C2 (single isomer, unassigned) [Compound 346, 2-((2s,4r)-6-cyclopropyl-6-azaspiro[3.5]nonan-2-yl)-8-fluoro-N-hydroxy-1,2,3,4-tetrahydroisoquinoline-6-carboxamide] | 1 to 100 | IV (IV: >100-1000) | 1000 to 10000
O=C(NO)c1cc(F)c2c(c1)CCN([C@H]1CCC3(CCCCC3)C1)C2 (single isomer, unassigned) [Compound 109] | 1 to 100 | – | 10000 to 100000
CC[C@@H]1Cc2c(F)cc(C(=O)NO)cc2CN1C1CCCCC1 (single isomer, unassigned) [Compound 582] | 100 to 1000 | III (III: >10-100) | 10000 to 100000
CC[C@H]1Cc2c(F)cc(C(=O)NO)cc2CN1C[C@@H]1CCCCO1 (single isomer, unassigned) [Compound 229] | 100 to 1000 | III (III: >10-100) | 1000 to 10000
CC[C@@H]1Cc2c(F)cc(C(=O)NO)cc2CN1C1CC(C)(C)C1 (single isomer, unassigned) [Compound 592] | 100 to 1000 | IV (IV: >100-1000) | 10000 to 100000
O=C(NO)c1cc(F)c2c(c1)CCN([C@@H]1CCN(C3CC3)C3(CCC3)C1)C2 (single isomer, unassigned) [Compound 440] | 1 to 100 | IV (IV: >100-1000) | 1000 to 10000
CC(=O)N1CC2(C[C@H](N3CCc4cc(C(=O)NO)cc(F)c4C3)CCO2)C1 (single isomer, unassigned) [Compound 453] | 1 to 100 | IV (IV: >100-1000) | 10000 to 100000
O=C(NO)c1cc(F)c2c(c1)CCN([C@H]1C[C@@]3(CCCNC3)C1)C2 (single isomer, unassigned) [Compound 342, 8-fluoro-N-hydroxy-2-((2s,4r)-6-azaspiro[3.5]nonan-2-yl)-1,2,3,4-tetrahydroisoquinoline-6-carboxamide] | 1 to 100 | IV (IV: >100-1000) | 1000 to 10000
